For 40 compounds, Emax and EC50 results are on record in patent US20230373939A1 (VERTEX PHARMACEUTICALS INCORPORATED, priority 2020, published 2023).

Read-outs that look alike come from different tables or passages of the source. Some results are limits rather than exact numbers.

For this assay, the target named is T1, F508del in NIH 3T3 cells (Homo sapiens, UniProt P13569, DEL508-508).
T1 construct: expressed in transfected cells
As to the kind of experiment: 3T3 assay: membrane potential optical assay for F508del correction. The format is cell-based. As to conditions: for EC50: read-out: 3T3 EC50. In a few lines:
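NIH 3T3 mouse fibroblasts stably expressing F508del were incubated with corrector compounds at a range of concentrations for 16–24 h at 37 °C, then loaded with a voltage-sensing redistribution dye. Channel activity was read as membrane-potential change on FLIPR after a single addition of forskolin with a chloride-free (gluconate) bath creating a Cl⁻ gradient.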

[1] abbreviates: NIH3T3, NIH 3T3 cells, F508del, read-out: 3T3 Max Activity (%).

T1 sequence (P13569 with tags, fused parts or gaps DEL508-508): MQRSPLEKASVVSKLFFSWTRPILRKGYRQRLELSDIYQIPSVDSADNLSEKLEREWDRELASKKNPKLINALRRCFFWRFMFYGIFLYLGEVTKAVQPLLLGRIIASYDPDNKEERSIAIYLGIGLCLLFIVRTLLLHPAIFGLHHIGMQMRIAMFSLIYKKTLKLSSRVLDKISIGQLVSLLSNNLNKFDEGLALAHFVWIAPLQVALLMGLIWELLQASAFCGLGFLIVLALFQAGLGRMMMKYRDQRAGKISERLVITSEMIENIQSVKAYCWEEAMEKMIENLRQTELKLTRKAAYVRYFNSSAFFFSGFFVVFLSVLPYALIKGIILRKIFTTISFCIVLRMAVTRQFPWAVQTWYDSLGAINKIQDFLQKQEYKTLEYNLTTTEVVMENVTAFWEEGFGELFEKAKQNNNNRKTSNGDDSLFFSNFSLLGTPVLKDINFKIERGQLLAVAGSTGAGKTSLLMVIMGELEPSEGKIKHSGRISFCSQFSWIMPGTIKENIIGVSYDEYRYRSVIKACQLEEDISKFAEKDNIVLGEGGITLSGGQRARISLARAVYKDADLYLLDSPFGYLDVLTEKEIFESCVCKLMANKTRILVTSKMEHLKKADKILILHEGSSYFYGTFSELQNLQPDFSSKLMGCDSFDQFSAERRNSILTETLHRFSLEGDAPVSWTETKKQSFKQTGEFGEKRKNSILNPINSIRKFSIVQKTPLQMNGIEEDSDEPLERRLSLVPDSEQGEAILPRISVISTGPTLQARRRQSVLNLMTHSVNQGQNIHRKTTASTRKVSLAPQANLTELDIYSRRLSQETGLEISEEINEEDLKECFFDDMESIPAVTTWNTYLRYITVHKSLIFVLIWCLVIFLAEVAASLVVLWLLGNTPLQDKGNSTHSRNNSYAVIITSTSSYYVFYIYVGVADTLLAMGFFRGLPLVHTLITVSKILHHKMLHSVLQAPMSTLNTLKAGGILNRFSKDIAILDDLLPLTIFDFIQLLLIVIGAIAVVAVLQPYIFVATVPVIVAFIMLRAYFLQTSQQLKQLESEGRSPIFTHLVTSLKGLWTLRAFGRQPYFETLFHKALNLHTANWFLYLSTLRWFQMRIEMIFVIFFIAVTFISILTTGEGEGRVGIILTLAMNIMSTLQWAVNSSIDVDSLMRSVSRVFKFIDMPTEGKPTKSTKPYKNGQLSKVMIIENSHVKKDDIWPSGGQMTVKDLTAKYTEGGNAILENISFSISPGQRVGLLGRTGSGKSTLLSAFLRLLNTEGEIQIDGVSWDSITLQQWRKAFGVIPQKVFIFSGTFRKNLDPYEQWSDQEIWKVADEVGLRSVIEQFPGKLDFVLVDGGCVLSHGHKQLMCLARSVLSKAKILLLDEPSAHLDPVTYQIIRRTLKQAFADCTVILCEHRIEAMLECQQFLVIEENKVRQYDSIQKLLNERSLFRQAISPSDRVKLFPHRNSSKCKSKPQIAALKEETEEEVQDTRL

The term EC50 denotes the concentration at which the effect is half-maximal. As for `Cc1ccc(-c2cn(Cc3ccccc3)nc2NS(=O)(=O)c2ccccc2)cc1` [Compound 101, N-[1-benzyl-4-(p-tolyl)pyrazol-3-yl]benzenesulfonamide], under setting [1], the Emax fell in the range of 30 to 60%. For the same compound, the EC50 (NIH 3T3 cells, F508del) lay within 1 to 3 µM.

For the compound `O=S(=O)(Nc1ccn(Cc2ccccc2)n1)c1ccccc1` [Compound 102, N-(1-benzylpyrazol-3-yl)benzenesulfonamide], the Emax (NIH3T3, read-out: 3T3 Max Activity (%)) was less than 30%.

For the compound `O=S(=O)(Nc1nn(Cc2ccccc2)cc1C1CCCCC1)c1ccccc1` [Compound 103, N-(1-benzyl-4-cyclohexyl-pyrazol-3-yl)benzenesulfonamide], the Emax under setting [1] is less than 30%.

`CC(C)=Cc1cn(Cc2ccccc2)nc1NS(=O)(=O)c1ccccc1` [Compound 104, N-[1-benzyl-4-(2-methylprop-1-enyl)pyrazol-3-yl]benzenesulfonamide]: the Emax under setting [1] is less than 30%.

Consider `C=C(C)c1cn(Cc2ccccc2)nc1NS(=O)(=O)c1ccccc1` [Compound 105, N-(1-benzyl-4-isopropenyl-pyrazol-3-yl)benzenesulfonamide], for which the Emax under setting [1] was less than 30%.

Turning to `O=S(=O)(Nc1nn(Cc2ccccc2)cc1C1=CCCCC1)c1ccccc1` [Compound 106, N-[1-benzyl-4-(cyclohexen-1-yl)pyrazol-3-yl]benzenesulfonamide], under setting [1], the Emax is less than 30%.

Turning to `O=S(=O)(Nc1nn(Cc2ccccc2)cc1-c1ccccc1)c1ccccc1` [Compound 107, N-(1-benzyl-4-phenyl-pyrazol-3-yl)benzenesulfonamide], the Emax under setting [1] is less than 30%.

Turning to `O=S(=O)(Nc1nn(Cc2ccccc2)cc1-c1ccc(Cl)cc1)c1ccccc1` [Compound 108, N-[1-benzyl-4-(4-chlorophenyl)pyrazol-3-yl]benzenesulfonamide], the Emax under setting [1] is 30 to 60%.

In the case of `O=S(=O)(Nc1nn(Cc2ccccc2)cc1-c1cccc(Cl)c1)c1ccccc1` [Compound 109, N-[1-benzyl-4-(3-chlorophenyl)pyrazol-3-yl]benzenesulfonamide], the Emax under setting [1] is less than 30%.

Consider `O=S(=O)(Nc1nn(Cc2ccccc2)cc1-c1ccccc1Cl)c1ccccc1` [Compound 110, N-[1-benzyl-4-(2-chlorophenyl)pyrazol-3-yl]benzenesulfonamide], for which the Emax under setting [1] was less than 30%.

For `COc1ccc(-c2cn(Cc3ccccc3)nc2NS(=O)(=O)c2ccccc2)cc1` [Compound 111, N-[1-benzyl-4-(4-methoxyphenyl)pyrazol-3-yl]benzenesulfonamide], under setting [1], the Emax was less than 30%.

With `COc1cccc(-c2cn(Cc3ccccc3)nc2NS(=O)(=O)c2ccccc2)c1` [Compound 112], under setting [1], the Emax was less than 30%.

Regarding `COc1ccccc1-c1cn(Cc2ccccc2)nc1NS(=O)(=O)c1ccccc1` [Compound 113, N-[1-benzyl-4-(2-methoxyphenyl)pyrazol-3-yl]benzenesulfonamide], under setting [1], the Emax is less than 30%.

As to `Cc1cccc(-c2cn(Cc3ccccc3)nc2NS(=O)(=O)c2ccccc2)c1` [Compound 114, N-[1-benzyl-4-(m-tolyl)pyrazol-3-yl]benzenesulfonamide], the Emax under setting [1] is less than 30%.

Regarding `Cc1ccccc1-c1cn(Cc2ccccc2)nc1NS(=O)(=O)c1ccccc1` [Compound 115], the Emax under setting [1] is less than 30%.

With `CCOC(=O)C1=C(c2ccccc2)N=C(NS(=O)(=O)c2ccccc2)SC1c1ccccc1` (stereo not drawn) [Compound 116, ethyl 2-(benzenesulfonamido)-4,6-diphenyl-6H-1,3-thiazine-5-carboxylate], the Emax under setting [1] was greater than 60%. Besides, the EC50 (NIH 3T3 cells, F508del) is less than 1 µM.

In the case of `O=S(=O)(NC1=NC(c2ccccc2)C=C(c2ccccc2)S1)c1ccccc1` (stereo not drawn) [Compound 117, N-(4,6-diphenyl-4H-1,3-thiazin-2-yl)benzenesulfonamide], the Emax under setting [1] fell in the range of 30 to 60%. For the same compound, under “NIH 3T3 cells, F508del”, the EC50 was in the range of 1 to 3 µM.

Consider `O=S(=O)(Nc1ncc(-c2ccccc2)nc1-c1ccccc1)c1ccccc1` [Compound 118, N-(3,5-diphenylpyrazin-2-yl)benzenesulfonamide], for which, under setting [1], the Emax is greater than 60%. The EC50 (NIH 3T3 cells, F508del) lay within 1 to 3 µM.

Take `Cc1cccc(C)c1-c1cnc(NCc2ccccc2)c(NS(=O)(=O)c2ccccc2)n1` [Compound 119, N-[3-(benzylamino)-6-(2,6-dimethylphenyl)pyrazin-2-yl]benzenesulfonamide]: the Emax under setting [1] was 30 to 60%. In addition, the EC50 (NIH 3T3 cells, F508del) lay within 1 to 3 µM.

In the case of `O=c1c(NS(=O)(=O)c2ccccc2)nc(-c2ccccc2)cn1-c1ccccc1` [Compound 120, N-(3-oxo-4,6-diphenyl-pyrazin-2-yl)benzenesulfonamide], the Emax under setting [1] was in the range of 30 to 60%. The EC50 (NIH 3T3 cells, F508del) fell in the range of 1 to 3 µM.

In the case of `Cc1cccc(C)c1-c1cnc(Oc2ccccc2)c(NS(=O)(=O)c2ccccc2)n1` [Compound 121, N-[6-(2,6-dimethylphenyl)-3-phenoxy-pyrazin-2-yl]benzenesulfonamide], under setting [1], the Emax was less than 30%.

In the case of `Cc1cccc(C)c1-c1cnc(N2CCN(C)CC2)c(NS(=O)(=O)c2ccccc2)n1` [Compound 122, N-[6-(2,6-dimethylphenyl)-3-(4-methylpiperazin-1-yl)pyrazin-2-yl]benzenesulfonamide], the Emax under setting [1] was less than 30%.

Turning to `CC(C)Oc1nc(NS(=O)(=O)c2ccccc2)nc(-c2ccccc2)n1` [Compound 124, N-(4-isopropoxy-6-phenyl-1,3,5-triazin-2-yl)benzenesulfonamide], the Emax under setting [1] was in the range of 30 to 60%. Further, the EC50 (NIH 3T3 cells, F508del) lay within 3 to 30 µM.

For the compound `O=S(=O)(Nc1nc(Oc2ccccc2)nc(-c2ccccc2)n1)c1ccccc1` [Compound 125, N-(4-phenoxy-6-phenyl-1,3,5-triazin-2-yl)benzenesulfonamide], under setting [1], the Emax fell in the range of 30 to 60%. The EC50 (NIH 3T3 cells, F508del) is less than 1 µM.

Regarding `Nc1cccc(S(=O)(=O)Nc2nc(Oc3ccccc3)nc(-c3ccccc3)n2)c1` [Compound 126, 3-amino-N-(4-phenoxy-6-phenyl-1,3,5-triazin-2-yl)benzenesulfonamide], under setting [1], the Emax lay within 30 to 60%. Further, under “NIH 3T3 cells, F508del”, the EC50 is 3 to 30 µM.

For `CC1CN(c2cc(NS(=O)(=O)c3ccccc3)nc(Oc3ccccc3)n2)C(C)(C)C1` (stereo not drawn) [Compound 128, N-[2-phenoxy-6-(2,2,4-trimethylpyrrolidin-1-yl)pyrimidin-4-yl]benzenesulfonamide], the Emax under setting [1] lay in the range of 30 to 60%. Besides, for the setting “NIH 3T3 cells, F508del”, the concentration for a half-maximal effect (EC50) was less than 1 µM.

`CC1CN(c2nc(NS(=O)(=O)c3ccccc3)cc(Oc3ccccc3)n2)C(C)(C)C1` (stereo not drawn) [Compound 129, N-[6-phenoxy-2-(2,2,4-trimethylpyrrolidin-1-yl)pyrimidin-4-yl]benzenesulfonamide]: under setting [1], the Emax is less than 30%.

Consider `O=S(=O)(Nc1cc(-c2ccccc2)nc(Oc2ccccc2)n1)c1ccccc1` [Compound 130, N-(2-phenoxy-6-phenylpyrimidin-4-yl)benzenesulfonamide], for which the Emax under setting [1] was in the range of 30 to 60%. Further, the EC50 (NIH 3T3 cells, F508del) lay in the range of 1 to 3 µM.

Consider `O=S(=O)(Nc1cc(-c2ccccc2)nc(-c2ccccc2)n1)c1ccccc1` [Compound 131, N-(2,6-diphenylpyrimidin-4-yl)benzenesulfonamide], for which, under setting [1], the Emax is greater than 60%. Further, the EC50 (NIH 3T3 cells, F508del) was 1 to 3 µM.

As to `O=S(=O)(Nc1cc(OCc2ccccc2)nc(-c2ccccc2)n1)c1ccccc1` [Compound 132, N-(6-benzyloxy-2-phenyl-pyrimidin-4-yl)benzenesulfonamide], the Emax under setting [1] was in the range of 30 to 60%. For the same compound, the EC50 (NIH 3T3 cells, F508del) is 1 to 3 µM.

On to `O=S(=O)(Nc1cc(Oc2ccccc2)cc(Oc2ccccc2)n1)c1ccccc1` [Compound 133, N-(4,6-Diphenoxy-2-pyridyl)benzenesulfonamide], for which the Emax under setting [1] was greater than 60%. Also, where the note is “NIH 3T3 cells, F508del”, the EC50 was 1 to 3 µM.

On to `Cc1ccc(-c2nc(NS(=O)(=O)c3ccccc3)ccc2C)cc1C` [Compound 134, N-[6-(3,4-Dimethylphenyl)-5-methyl-2-pyridyl]benzenesulfonamide], for which, under setting [1], the Emax is greater than 60%. The EC50 (NIH 3T3 cells, F508del) was 3 to 30 µM.

Consider `Cc1cc(NS(=O)(=O)c2ccccc2)nc(-c2cc(C)ccc2C)c1` [Compound 135, N-[6-(2,5-Dimethylphenyl)-4-methyl-2-pyridyl]benzenesulfonamide], for which the Emax under setting [1] was greater than 60%. Further, the EC50 (NIH 3T3 cells, F508del) lay in the range of 1 to 3 µM.

For `O=S(=O)(Nc1cc(Oc2ccccc2)cc(-c2ccccc2)n1)c1ccccc1` [Compound 136, N-(4-phenoxy-6-phenyl-2-pyridyl)benzenesulfonamide], under setting [1], the Emax is greater than 60%. The EC50 (NIH 3T3 cells, F508del) lay within 1 to 3 µM.

On to `Cc1ccc(NS(=O)(=O)c2ccccc2)nc1-c1cccc(C)c1C` [Compound 137, N-[6-(2,3-Dimethylphenyl)-5-methyl-2-pyridyl]benzenesulfonamide], for which the Emax under setting [1] is greater than 60%. In addition, the concentration giving a half-maximal response (EC50) (NIH 3T3 cells, F508del) lay within 1 to 3 µM.

`Cc1ccc(C)c(-c2nc(NS(=O)(=O)c3ccccc3)ccc2C)c1` [Compound 138, N-[6-(2,5-Dimethylphenyl)-5-methyl-2-pyridyl]benzenesulfonamide]: under setting [1], the Emax is greater than 60%. Also, the EC50 (NIH 3T3 cells, F508del) lay within 1 to 3 µM.

`Cc1ccc(C)c(-c2nc(NS(=O)(=O)c3ccccc3)cc(C)c2C)c1` [Compound 139, N-[6-(2,5-Dimethylphenyl)-4,5-dimethyl-2-pyridyl]benzenesulfonamide]: the Emax under setting [1] is greater than 60%. For the same compound, for the setting “NIH 3T3 cells, F508del”, the concentration for a half-maximal effect (EC50) lay in the range of 1 to 3 µM.

As to `CCCc1ccc(NS(=O)(=O)c2ccccc2)nc1-c1ccc(C)cc1` [Compound 140, N-[5-propyl-6-(p-tolyl)-2-pyridyl]benzenesulfonamide], the Emax under setting [1] was greater than 60%. The EC50 (NIH 3T3 cells, F508del) is 1 to 3 µM.

In the case of `C/C=C/c1ccc(NS(=O)(=O)c2ccccc2)nc1Oc1ccccc1` [Compound 141, N-[6-phenoxy-5-[(E)-prop-1-enyl]-2-pyridyl]benzenesulfonamide], under setting [1], the Emax is greater than 60%. Also, the EC50 (NIH 3T3 cells, F508del) was 1 to 3 µM.

Take `O=S(=O)(Nc1cc(-c2ccccc2)cc(Oc2ccccc2)n1)c1ccccc1` [Compound 142, N-(6-phenoxy-4-phenyl-2-pyridyl)benzenesulfonamide]: the Emax under setting [1] is greater than 60%. Under “NIH 3T3 cells, F508del”, the EC50 is less than 1 µM.
